In ChEMBL document CHEMBL3808394, “Synthesis and decreasing Aβ content evaluation of arctigenin-4-yl carbamate derivatives” (Bioorg Med Chem Lett, 2016):
Activity calls are given as the source filed them. The calls are words filed in the database; no cut-off is given here.

Tests used:
Assay type in all cases: cell-based
[1] = biological target: Amyloid-beta precursor protein (Homo sapiens) (UniProt P05067); experiment: Reduction in amyloid beta 40 content (unknown origin) expressed in HEK293 cells expressing APP K595N/M596L Swedish mutant at 20 uM after 24 hrs by ELISA
Amyloid-beta precursor protein (Homo sapiens), sequence (P05067 whole entry): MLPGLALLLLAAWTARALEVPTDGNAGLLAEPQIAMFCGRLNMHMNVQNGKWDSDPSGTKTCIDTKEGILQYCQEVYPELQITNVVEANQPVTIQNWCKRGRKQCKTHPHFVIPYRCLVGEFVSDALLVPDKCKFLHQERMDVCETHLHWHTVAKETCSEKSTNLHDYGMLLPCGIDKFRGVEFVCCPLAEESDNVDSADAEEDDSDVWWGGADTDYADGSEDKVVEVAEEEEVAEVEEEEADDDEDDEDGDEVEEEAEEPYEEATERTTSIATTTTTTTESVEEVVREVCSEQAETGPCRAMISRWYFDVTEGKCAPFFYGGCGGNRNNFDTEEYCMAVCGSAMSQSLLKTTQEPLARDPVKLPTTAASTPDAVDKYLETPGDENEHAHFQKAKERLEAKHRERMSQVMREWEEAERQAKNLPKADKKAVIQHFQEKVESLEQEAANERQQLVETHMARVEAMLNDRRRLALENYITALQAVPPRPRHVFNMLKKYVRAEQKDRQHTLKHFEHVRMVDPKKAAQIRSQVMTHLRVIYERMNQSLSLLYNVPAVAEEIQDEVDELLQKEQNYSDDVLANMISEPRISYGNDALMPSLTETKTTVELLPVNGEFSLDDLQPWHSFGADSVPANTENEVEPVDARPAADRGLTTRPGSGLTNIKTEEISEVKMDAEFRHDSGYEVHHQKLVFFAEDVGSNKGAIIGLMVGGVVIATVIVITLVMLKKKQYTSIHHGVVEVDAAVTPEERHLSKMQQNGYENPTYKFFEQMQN

[2] = biological target: Amyloid-beta precursor protein (Homo sapiens) (UniProt P05067); experiment: Reduction in amyloid beta 40 content (unknown origin) expressed in HEK293 cells expressing APP K595N/M596L Swedish mutant at 1 uM after 24 hrs by ELISA
[3] = biological target: Amyloid-beta precursor protein (Homo sapiens) (UniProt P05067); experiment: Reduction in amyloid beta 40 content (unknown origin) expressed in HEK293 cells expressing APP K595N/M596L Swedish mutant at 10 uM after 24 hrs by ELISA
[4] = biological target: Amyloid-beta precursor protein (Homo sapiens) (UniProt P05067); experiment: Reduction in amyloid beta 40 content (unknown origin) expressed in HEK293 cells expressing APP K595N/M596L Swedish mutant at 0.1 uM after 24 hrs by ELISA

SMILES | inhibition [1] [%] | other results
CNC(=O)Oc1ccc(C[C@H]2C(=O)OC[C@@H]2Cc2ccc(OC)c(OC)c2)cc1OC | 29.8 | –
COc1ccc(C[C@H]2COC(=O)[C@@H]2Cc2ccc(OC(=O)Nc3ccccc3Cl)c(OC)c2)cc1OC | 58.3 | –
COc1ccc(C[C@H]2COC(=O)[C@@H]2Cc2ccc(OC(=O)NC3CCCCC3)c(OC)c2)cc1OC | 35.4 | –
COc1ccc(C[C@H]2COC(=O)[C@@H]2Cc2ccc(N3CCCCC3)c(OC)c2)cc1OC | 26.2 | –
COc1ccc(C[C@H]2COC(=O)[C@@H]2Cc2ccc(OC(=O)Nc3cccc(Cl)c3)c(OC)c2)cc1OC | 78.7 | inhibition [2]: Active; inhibition [3]: Active; inhibition [4]: inactive
COc1ccc(Cl)cc1NC(=O)Oc1ccc(C[C@H]2C(=O)OC[C@@H]2Cc2ccc(OC)c(OC)c2)cc1OC | 42.4 | –
COc1ccc(C[C@H]2COC(=O)[C@@H]2Cc2ccc(OC(=O)N[C@H](C)c3ccccc3)c(OC)c2)cc1OC | 45 | –
COc1ccc(C[C@H]2COC(=O)[C@@H]2Cc2ccc(OC(=O)NC(C)C)c(OC)c2)cc1OC | 21.4 | –
COc1ccc(C[C@H]2COC(=O)[C@@H]2Cc2ccc(OC(=O)Nc3ccc(F)c(Cl)c3)c(OC)c2)cc1OC | 60.5 | –
COc1ccc(NC(=O)Oc2ccc(C[C@H]3C(=O)OC[C@@H]3Cc3ccc(OC)c(OC)c3)cc2OC)cc1 | 52.9 | –
COc1ccc(C[C@H]2COC(=O)[C@@H]2Cc2ccc(OC(=O)Nc3cccc(C)c3)c(OC)c2)cc1OC | 55 | –
COc1ccccc1NC(=O)Oc1ccc(C[C@H]2C(=O)OC[C@@H]2Cc2ccc(OC)c(OC)c2)cc1OC | 61.7 | –
COc1ccc(C[C@H]2COC(=O)[C@@H]2Cc2ccc(OC(=O)N(C)c3cccc(Cl)c3)c(OC)c2)cc1OC | 41 | –
COc1cccc(NC(=O)Oc2ccc(C[C@H]3C(=O)OC[C@@H]3Cc3ccc(OC)c(OC)c3)cc2OC)c1 | 52.8 | –
COc1ccc(C[C@H]2COC(=O)[C@@H]2Cc2ccc(OC(=O)N[C@@H](C)c3ccccc3)c(OC)c2)cc1OC | 70.8 | –
COc1ccc(C[C@H]2COC(=O)[C@@H]2Cc2ccc(OC(=O)Nc3cccc([N+](=O)[O-])c3)c(OC)c2)cc1OC | 63 | –

SMILES | inhibition [1] [%] | other results
COc1ccc(C[C@H]2COC(=O)[C@@H]2Cc2ccc(OC(=O)N(C)c3ccccc3)c(OC)c2)cc1OC | 30 | –
CCCNC(=O)Oc1ccc(C[C@H]2C(=O)OC[C@@H]2Cc2ccc(OC)c(OC)c2)cc1OC | 20.3 | –
COc1ccc(C[C@H]2COC(=O)[C@@H]2Cc2ccc(OC(=O)Nc3ccc(Cl)cc3)c(OC)c2)cc1OC | 66.9 | inhibition [2]: Active; inhibition [3]: Active; inhibition [4]: inactive
COc1ccc(C[C@H]2COC(=O)[C@@H]2Cc2ccc(OC(=O)Nc3cccc(C#N)c3)c(OC)c2)cc1OC | 56 | –
COc1ccc(C[C@H]2COC(=O)[C@@H]2Cc2ccc(OC(=O)Nc3ccccc3)c(OC)c2)cc1OC | 43.5 | –
COc1ccc(C[C@H]2COC(=O)[C@@H]2Cc2ccc(OC(=O)N(C)C)c(OC)c2)cc1OC | 28.5 | –
COc1ccc(C[C@H]2COC(=O)[C@@H]2Cc2ccc(OC(=O)Nc3cc(Cl)cc(Cl)c3)c(OC)c2)cc1OC | 56 | –
COc1ccc(C[C@H]2COC(=O)[C@@H]2Cc2ccc(OC(=O)Nc3cccc(F)c3)c(OC)c2)cc1OC | 61 | –
COc1ccc(C[C@H]2COC(=O)[C@@H]2Cc2ccc(OC(=O)NCCc3ccccc3)c(OC)c2)cc1OC | 49 | –
COc1ccc(C[C@H]2COC(=O)[C@@H]2Cc2ccc(OC(=O)Nc3cccc(Cl)c3C)c(OC)c2)cc1OC | 62.8 | –
COc1ccc(C[C@H]2COC(=O)[C@@H]2Cc2ccc(OC(=O)Nc3ccc(C)c(Cl)c3)c(OC)c2)cc1OC | 53.7 | –
COc1ccc(C[C@H]2COC(=O)[C@@H]2Cc2ccc(OC(=O)NCc3ccccc3)c(OC)c2)cc1OC | 41.3 | –
COc1cc(C[C@H]2C(=O)OC[C@@H]2Cc2ccc(OC)c(OC)c2)ccc1O | 44.6 | inhibition [2]: inactive; inhibition [3]: Active; inhibition [4]: inactive
CCN(CC)C(=O)Oc1ccc(C[C@H]2C(=O)OC[C@@H]2Cc2ccc(OC)c(OC)c2)cc1OC | 11.9 | –
CCNC(=O)Oc1ccc(C[C@H]2C(=O)OC[C@@H]2Cc2ccc(OC)c(OC)c2)cc1OC | 36.3 | –
